From patent US6875760B2 (Novo Nordisk A/S, priority 1999, dated 2005)
pIC50: −log10 of the molar value.

These compounds were tested against T1, human glucagon receptor (Homo sapiens, UniProt P47871) (assay: Glucagon Binding Assay (III)). Details: BHK cell membranes, WGA SPA beads, 125I-glucagon; read-out: Glu Bd Assay (III) IC50.
T1 construct: expressed in transfected cells; host or cells: BHK (baby hamster kidney) cells
How it was run: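 Non-specific binding was set with 500 nM glucagon in this SPA-type binding assay using WGA beads. The receptor source was a membrane preparation, kept on ice or at 4 °C, from BHK cells transfected with the human receptor. Scintillation counts were taken after 4 hours of shaking and 8–48 hours of settling.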

T1 sequence (P47871 26-477): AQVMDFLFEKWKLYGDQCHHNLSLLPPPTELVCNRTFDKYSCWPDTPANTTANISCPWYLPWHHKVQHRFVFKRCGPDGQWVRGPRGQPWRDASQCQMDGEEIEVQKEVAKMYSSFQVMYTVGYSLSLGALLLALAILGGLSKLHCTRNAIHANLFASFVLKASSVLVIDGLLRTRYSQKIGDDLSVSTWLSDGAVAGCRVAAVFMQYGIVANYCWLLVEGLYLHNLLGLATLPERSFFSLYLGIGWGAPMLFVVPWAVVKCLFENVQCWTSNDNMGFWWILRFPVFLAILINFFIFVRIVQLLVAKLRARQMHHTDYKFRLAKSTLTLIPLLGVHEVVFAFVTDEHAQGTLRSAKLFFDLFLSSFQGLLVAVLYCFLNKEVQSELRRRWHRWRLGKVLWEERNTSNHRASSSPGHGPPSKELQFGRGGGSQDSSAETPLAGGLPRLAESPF

Row | SMILES | pIC50
1 | CC(C)Cc1ccc(C(=O)N(Cc2ccc(C(=O)Nc3nn[nH]n3)cc2)c2ccc(C3CCCCC3)cc2)cc1 [Example 507, 4-{[(4-Cyclohexylphenyl)-(4-isobutylbenzoyl)amino]methyl}-N-(2H-tetrazol-5-yl)benzamide] | 6.35
2 | O=C(Nc1nn[nH]n1)c1ccc(CN(C(=O)c2ccc(Cc3ccccc3)cc2)c2ccc(C3CCCCC3)cc2)cc1 [Example 508, 4-{[(4-Cyclohexylphenyl)-(4-benzylbenzoyl)amino]methyl}-N-(2H-tetrazol-5-yl)benzamide] | 6.70
3 | O=C(Nc1nn[nH]n1)c1ccc(CN(C(=O)c2cccc(C(F)(F)F)c2)c2ccc(C3CCCCC3)cc2)cc1 [Example 510, 4-{[(4-Cyclohexylphenyl)-(3-trifluoromethylbenzoyl)amino]methyl}-N-(2H-tetrazol-5-yl)benzamide] | 5.96
4 | CC(C)Cc1ccc(C(=O)N(Cc2ccc(C(=O)Nc3nn[nH]n3)cc2)C2CCC(C(C)(C)C)CC2)cc1 (stereo not shown) [Example 511, 4-{[(4-tert-Butylcyclohexyl)-(4-isobutylbenzoyl)amino]methyl}-N-(2H-tetrazol-5-yl)benzamide] | 7.24
5 | CC(C)(C)C1CCC(N(Cc2ccc(C(=O)Nc3nn[nH]n3)cc2)C(=O)c2ccc(Cc3ccccc3)cc2)CC1 (stereo not shown) [Example 512, 4-{[(4-tert-Butylcyclohexyl)-(4-benzylbenzoyl)amino]methyl}-N-(2H-tetrazol-5-yl)benzamide] | 6.95
6 | CC(C)Oc1ccc(C(=O)N(Cc2ccc(C(=O)Nc3nn[nH]n3)cc2)C2CCC(C(C)(C)C)CC2)cc1 (stereo not shown) [Example 513, 4-{[(4-tert-Butylcyclohexyl)-(4-isopropoxybenzoyl)amino]methyl}-N-(2H-tetrazol-5-yl)benzamide] | 6.84
7 | CC(C)(C)C1CCC(N(Cc2ccc(C(=O)Nc3nn[nH]n3)cc2)C(=O)c2cccc(C(F)(F)F)c2)CC1 (stereo not shown) [Example 514, 4-{[(4-tert-Butylcyclohexyl)-(3-trifluoromethylbenzoyl)amino]methyl}-N-(2H-tetrazol-5-yl)benzamide] | 6.18
8 | CC(C)(C)C1CCC(N(Cc2ccc(C(=O)Nc3nn[nH]n3)cc2)C(=O)c2cccc3ccccc23)CC1 (stereo not shown) [Example 515, 4-{[(4-tert-Butylcyclohexyl)-(naphth-1-ylcarbonyl)amino]methyl}-N-(2H-tetrazol-5-yl)benzamide] | 6.35
9 | CC(C)(C)C1CCC(N(Cc2ccc(C(=O)Nc3nn[nH]n3)cc2)C(=O)c2cccc3[nH]ccc23)CC1 (stereo not shown) [Example 516, 4-{[(4-tert-Butylcyclohexyl)-(1H-indol-4-ylcarbonyl)amino]methyl}-N-(2H-tetrazol-5-yl)benzamide] | 5.60
10 | CC(C)(C)C1CCC(N(Cc2ccc(C(=O)Nc3nn[nH]n3)cc2)C(=O)Cc2ccc(S(C)(=O)=O)cc2)CC1 (stereo not shown) [Example 517, 4-({(4-tert-Butylcyclohexyl)-[2-(4-methylsulfonylphenyl)acetyl]amino}methyl)-N-(2H-tetrazol-5-yl)benzamide] | 6.21
11 | CC(C)Cc1ccc(C(=O)N(Cc2ccc(C(=O)Nc3nn[nH]n3)cc2)c2ccc(N3CCCCC3)cc2)cc1 [Example 518, 4-{[(4-Isobutylbenzoyl)-(4-piperidin-1-ylphenyl)amino]methyl}-N-(2H-tetrazol-5-yl)benzamide] | 5.83
12 | O=C(Nc1nn[nH]n1)c1ccc(CN(C(=O)c2ccc(Cc3ccccc3)cc2)c2ccc(N3CCCCC3)cc2)cc1 [Example 519, 4-{[(4-Benzylbenzoyl)-(4-piperidin-1-ylphenyl)amino]methyl}-N-(2H-tetrazol-5-yl)benzamide] | 6.04
13 | CC(C)Cc1ccc(C(=O)N(Cc2ccc(C(=O)NCCC(=O)O)cc2)c2ccc(C3CCCCC3)cc2)cc1 [Example 520, 3-(4-{[(4-Cyclohexylphenyl)-(4-isobutylbenzoyl)amino]methyl}benzoylamino)propionic acid] | 5.70
14 | O=C(O)CCNC(=O)c1ccc(CN(C(=O)c2ccc(Cc3ccccc3)cc2)c2ccc(C3CCCCC3)cc2)cc1 [Example 521, 3-(4-{[(4-Benzylbenzoyl)-(4-cyclohexylphenyl)amino]methyl}benzoylamino)propionic acid] | 5.47
15 | O=C(O)CCNC(=O)c1ccc(CN(C(=O)c2ccc3c(c2)-c2ccccc2C3=O)c2ccc(C3CCCCC3)cc2)cc1 [Example 522, 3-(4-{[(4-Cyclohexylphenyl)-(9-oxo-9H-fluorene-3-carbonyl)amino]methyl}benzoylamino)propionic acid] | 6.05
16 | CC(C)Oc1ccc(C(=O)N(Cc2ccc(C(=O)NCCC(=O)O)cc2)c2ccc(C3CCCCC3)cc2)cc1 [Example 523, 3-(4-{[(4-Cyclohexylphenyl)-(4-isopropoxybenzoyl)amino]methyl}benzoylamino)propionic acid] | 5.68
17 | O=C(O)CCNC(=O)c1ccc(CN(C(=O)c2cccc(C(F)(F)F)c2)c2ccc(C3CCCCC3)cc2)cc1 [Example 524, 3-(4-{[(4-Cyclohexylphenyl)-(3-trifluoromethylbenzoyl)amino]methyl}benzoylamino)propionic acid] | 6.53

Row | SMILES | pIC50
18 | CC(C)(C)C1CCC(N(Cc2ccc(C(=O)NCCC(=O)O)cc2)C(=O)c2ccc(Cc3ccccc3)cc2)CC1 (stereo not shown) [Example 525, 3-(4-{[(4-Benzylbenzoyl)-(4-tert-butylcyclohexyl)amino]methyl}benzoylamino)propionic acid] | 6.17
19 | CC(C)Oc1ccc(C(=O)N(Cc2ccc(C(=O)NCCC(=O)O)cc2)C2CCC(C(C)(C)C)CC2)cc1 (stereo not shown) [Example 526, 3-(4-{[(4-tert-Butylcyclohexyl)-(4-isopropoxybenzoyl)amino]methyl}benzoylamino)propionic acid] | 5.77
20 | CC(C)(C)C1CCC(N(Cc2ccc(C(=O)NCCC(=O)O)cc2)C(=O)c2cccc(C(F)(F)F)c2)CC1 (stereo not shown) [Example 527, 3-(4-{[(4-tert-Butylcyclohexyl)-(3-trifluormethylbenzoyl)amino]methyl}benzoylamino)propionic acid] | 6.18
21 | O=C(Nc1nn[nH]n1)c1ccc(CN(CC(c2ccccc2)c2ccccc2)C(=O)Cc2cccc(OC(F)(F)F)c2)cc1 [Example 529, 4-({(2,2-Diphenylethyl)-[2-(3-trifluoromethoxyphenyl)acetyl]amino}methyl)-N-(2H-tetrazol-5-yl)benzamide] | 6.33
22 | CC(Oc1ccc(OC(F)(F)F)cc1)C(=O)N(Cc1ccc(C(=O)Nc2nn[nH]n2)cc1)CC(c1ccccc1)c1ccccc1 (stereo not shown) [Example 530, 4-({(2,2-Diphenylethyl)-[2-(4-trifluoromethoxyphenoxy)propionyl]amino}methyl)-N-(2H-tetrazol-5-yl)benzamide] | 5.40
23 | O=C(Nc1nn[nH]n1)c1ccc(CN(CC(c2ccccc2)c2ccccc2)C(=O)Cc2ccc(OC(F)(F)F)cc2)cc1 [Example 531] | 6.20
24 | O=C(Nc1nn[nH]n1)c1ccc(CN(C(=O)CSCc2ccccc2)c2ccc(C3CCCCC3)cc2)cc1 [Example 532, 4-{[(2-Benzylsulfanylacetyl)-(4-cyclohexylphenyl)amino]methyl}-N-(2H-tetrazol-5-yl)benzamide] | 6.20
25 | O=C(Nc1nn[nH]n1)c1ccc(CN(C(=O)CCOc2ccccc2)c2ccc(C3CCCCC3)cc2)cc1 [Example 533, 4-{[(4-Cyclohexylphenyl)-(3-phenoxypropionyl)amino]methyl}-N-(2H-tetrazol-5-yl)benzamide] | 5.74
26 | O=C(Nc1nn[nH]n1)c1ccc(CN(C(=O)/C=C/c2cccc3ccccc23)c2ccc(C3CCCCC3)cc2)cc1 [Example 534, 4-{[(4-Cyclohexylphenyl)-(3-naphthalen-1-ylacryloyl)amino]methyl}-N-(2H-tetrazol-5-yl)benzamide] | 6.55
27 | O=C(Nc1nn[nH]n1)c1ccc(CN(C(=O)CCCc2ccccc2)c2ccc(C3CCCCC3)cc2)cc1 [Example 535, 4-{[(4-Cyclohexylphenyl)-(4-phenylbutyryl)amino]methyl}-N-(2H-tetrazol-5-yl)benzamide] | 6.65
28 | CC(C)(C)C1CCC(N(Cc2ccc(C(=O)Nc3nn[nH]n3)cc2)C(=O)CSCc2ccccc2)CC1 (stereo not shown) [Example 537, 4-{[(2-Benzylsulfanylacetyl)-(4-tert-butylcyclohexyl)amino]methyl}-N-(2H-tetrazol-5-yl)benzamide] | 6.55
29 | CC(C)(C)C1CCC(N(Cc2ccc(C(=O)Nc3nn[nH]n3)cc2)C(=O)C/C=C/c2ccccc2)CC1 (stereo not shown) [Example 538, 4-{[(4-tert-Butylcyclohexyl)-(4-phenylbut-3-enoyl)amino]methyl}-N-(2H-tetrazol-5-yl)benzamide] | 6.74
30 | CC(C)(C)C1CCC(N(Cc2ccc(C(=O)Nc3nn[nH]n3)cc2)C(=O)Cc2c(Cl)cccc2Cl)CC1 (stereo not shown) [Example 539, 4-({(4-tert-Butylcyclohexyl)-[2-(2,6-dichlorophenyl)acetyl]amino}methyl)-N-(2H-tetrazol-5-yl)benzamide] | 6.41
31 | CC(C)(C)C1CCC(N(Cc2ccc(C(=O)Nc3nn[nH]n3)cc2)C(=O)CCC(=O)c2ccc(Cl)cc2)CC1 (stereo not shown) [Example 540, 4-({(4-tert-Butylcyclohexyl)-[4-(4-chlorophenyl)-4-oxobutyryl]amino}methyl)-N-(2H-tetrazol-5-yl)benzamide] | 6.27
32 | CC(C)(C)C1CCC(N(Cc2ccc(C(=O)Nc3nn[nH]n3)cc2)C(=O)CCC(=O)c2ccccc2)CC1 (stereo not shown) [Example 541, 4-({(4-tert-Butylcyclohexyl)-(4-oxo-4-phenylbutyryl)amino]methyl}-N-(2H-tetrazol-5-yl)benzamide] | 6.09
33 | CC(Oc1ccc(Cl)cc1)C(=O)N(Cc1ccc(C(=O)Nc2nn[nH]n2)cc1)C1CCC(C(C)(C)C)CC1 (stereo not shown) [Example 542, 4-({(4-tert-Butylcyclohexyl)-[2-(4-chlorophenoxy)propionyl]amino}methyl)-N-(2H-tetrazol-5-yl)benzamide] | 6.52
34 | CC(C)(C)C1CCC(N(Cc2ccc(C(=O)Nc3nn[nH]n3)cc2)C(=O)Cc2cccc(OC(F)(F)F)c2)CC1 (stereo not shown) [Example 543, 4-({(4-tert-Butylcyclohexyl)-[2-(3-trifluoromethoxyphenyl)acetyl]amino}methyl)-N-(2H-tetrazol-5-yl)benzamide] | 6.70
